Measured values published in US10561657B2, “Pyrrolopyrimidine compound” (CENTAURUS BIOPHARMA CO., LTD., priority 2014, dated 2020).
Read-outs that look alike come from different tables or passages of the source. Each block holds one molecule with its values, some of them ahead of it.

What was measured:
[1] = target: JAK2 kinase (wild type, JAK2^WT) (Homo sapiens (Human), UniProt O60674); experiment: HTRF assay for enzymatic activity (IC50), JAK2 wild type; type: biochemical; conditions: ATP at Km, 120 min, 23 °C
Procedure: (§1) 1. Assay for Enzymatic Activity (IC50) of Compounds
(§2) A testing platform for kinase activity of JAK2 (wild type and V617F mutant type) was established based on Homogeneous Time-Resolved Fluorescence (HTRF) assay, and the activities of the compounds were tested using the platform. The compounds were subjected to three-fold gradient dilutions with 100% DMSO with a starting concentration of 1 mM (11 dilutions in total). 4 μL of each dilution was added to 96 μL of reaction buffer (50 mM HEPES, pH 7.4, 10 mM MgCl2, 1 mM EGTA, 0.01% Tween-20, 0.005% BAS, 2 mM DTT) and mixed homogeneously. […] The mixture was mixed homogeneously by centrifugation. […] The plate was incubated in the incubator for 1 hr, and then the fluorescence values were read on Envision (available from PerkinElmer). […] The enzymatic activity was representd by a ratio of the two readout at the two emission wavelengths. The enzymatic activity for each compound was tested at 11 concentrations, and IC50 values of the compounds were obtained by calculating the data using GraFit6.0 software (Erithacus Software). 2. Assay for cell proliferation activity (IC50) of compounds

[2] = target: JAK2 kinase (V617F mutant type, JAK2^V617F) (Homo sapiens (Human), UniProt O60674, V617F); experiment: HTRF assay for enzymatic activity (IC50), JAK2 V617F mutant type; type: biochemical; conditions: ATP at Km, 120 min, 23 °C
Procedure: as §1, §2

HEL (JAK2^V617F) cells = experiment: Cell proliferation assay (CellTiter-Blue, 72 hrs); type: cell-based; conditions: Homo sapiens; 72 hrs of treatment
Procedure: In the tests of compounds, HEL cells were plated in a 96-well plate (Corning) at a density of 3000 cells/195 μL per well. The compounds were subjected to three-fold gradient dilutions with a starting concentration of 10 mM (11 dilutions in total). […] 5 μL of the resulting liquid was then added to 195 μL of the cell culture medium (the final concentration in DMSO is 0.1%, v/v). After 72 hrs of treatment, 35 μL of CellTiter-Blue® (available from Promega) was added. The fluorescent signals were detected on Flex Station3 (Molecular Devices) in accordance with the protocols described in the instructions. The IC50 values of the compounds in inhibiting cell proliferation were calculated using GraphPad Prism 5.0.

in vivo = conditions: male, Sprague-Dawley, rat, plasma, po, 5 mg/kg
Procedure: The rats were allocated with three rats per group, and separately orally administered the suspension of a sample to be tested (5 mg/kg or 15 mg/kg) by single intragastric administration. […] After the animals were narcotized with isoflurane using an anaesthesia machine for small animals, 0.3 mL of whole blood was drawn from fundus venous plexus, and placed in a heparin anticoagulant tube. At 4° C., the sample was centrifuged at 4000 rpm for 5 min, and plasma was transferred to a centrifuge tube and preserved at −80° C. until the analysis was started. The sample in plasma was extracted by the protein precipitation method, and the extract liquid was analyzed by LC/MS/MS.

[3] = 0.5% MC, FDA pharmacology review, cited from earlier work
[4] = dogs, male, FDA pharmacology review, cited from earlier work
[5] = rats, 30 mg/kg PO; FDA pharmacology review; cited from earlier work

Sequence of JAK2 kinase (V617F mutant type, JAK2^V617F) (O60674 whole entry V617F): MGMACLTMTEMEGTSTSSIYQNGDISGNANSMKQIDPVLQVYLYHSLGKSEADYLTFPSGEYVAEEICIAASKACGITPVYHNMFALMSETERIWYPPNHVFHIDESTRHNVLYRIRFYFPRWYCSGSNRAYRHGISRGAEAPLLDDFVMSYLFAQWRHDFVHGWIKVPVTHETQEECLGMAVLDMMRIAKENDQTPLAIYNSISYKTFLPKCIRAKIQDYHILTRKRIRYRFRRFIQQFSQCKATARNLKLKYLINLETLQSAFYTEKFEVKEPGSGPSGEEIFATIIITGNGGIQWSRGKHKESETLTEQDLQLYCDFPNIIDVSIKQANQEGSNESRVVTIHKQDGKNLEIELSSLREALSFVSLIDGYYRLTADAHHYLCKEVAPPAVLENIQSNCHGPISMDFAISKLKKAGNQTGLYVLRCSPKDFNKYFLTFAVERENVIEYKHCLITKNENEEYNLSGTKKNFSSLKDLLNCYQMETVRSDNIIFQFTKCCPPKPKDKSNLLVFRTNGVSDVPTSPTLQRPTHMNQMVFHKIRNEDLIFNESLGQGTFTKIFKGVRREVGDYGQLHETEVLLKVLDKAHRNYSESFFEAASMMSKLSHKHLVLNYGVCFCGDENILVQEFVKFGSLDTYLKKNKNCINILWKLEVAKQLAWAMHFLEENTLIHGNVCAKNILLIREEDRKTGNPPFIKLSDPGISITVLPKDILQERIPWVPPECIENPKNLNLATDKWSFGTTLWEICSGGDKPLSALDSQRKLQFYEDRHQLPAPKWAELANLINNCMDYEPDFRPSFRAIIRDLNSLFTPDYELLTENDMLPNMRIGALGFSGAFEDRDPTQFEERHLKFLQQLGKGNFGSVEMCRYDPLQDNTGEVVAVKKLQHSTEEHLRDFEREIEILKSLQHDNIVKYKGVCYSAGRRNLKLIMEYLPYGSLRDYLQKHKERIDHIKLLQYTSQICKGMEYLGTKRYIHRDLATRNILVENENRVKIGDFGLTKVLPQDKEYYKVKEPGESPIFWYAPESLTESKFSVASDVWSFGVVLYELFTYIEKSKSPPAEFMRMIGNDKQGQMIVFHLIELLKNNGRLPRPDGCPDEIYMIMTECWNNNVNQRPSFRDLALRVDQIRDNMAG
Sequence of JAK2 kinase (wild type, JAK2^WT) (O60674 whole entry): as the sequence (O60674 whole entry V617F) above, with F617V counted along it

IC50 [1]: < 20 nM
IC50 [2]: < 20 nM
Compound: N#CCC(C1CCCC1)n1cc(-c2ncnc3[nH]ccc23)c(N)n1 (centres unmarked) [Example 1, 3-[3-amino-4-(7H-pyrrolo[2,3-d]pyrimidin-4-yl)-1H-pyrazol-1-yl]-3-cyclopentylpropanenitrile]

Compound: CCNc1nn(C(CC#N)C2CCCC2)cc1-c1ncnc2[nH]ccc12 (centres unmarked) [Example 7, 3-[3-ethylamino-4-(7H-pyrrolo[2,3-d]pyrimidin-4-yl)-1H-pyrazol-1-yl]-3-cyclopentylpropanenitrile]
IC50 (HEL (JAK2^V617F) cells): < 200 nM
IC50 [1]: < 20 nM
IC50 [2]: < 20 nM
AUC(0-inf) (in vivo): 20 ng·h/mL
Cmax (in vivo): 13.5 ng/mL
Tmax (in vivo): 19.8 min
half-life (in vivo): 30 min

Compound: N#CC[C@H](C1CCCC1)n1cc(-c2ncnc3[nH]ccc23)cn1 [Ruxolitinib Phosphate]
AUCINF—obs ([3]; female rats, oral 15 mg/kg): 336 ng·h/mL
Cmax ([3]; female rats, oral 15 mg/kg): 267 ng/mL
T1/2 ([3]; female rats, oral 15 mg/kg): 1.98 h
Tmax ([3]; female rats, oral 15 mg/kg): 30 min
AUCINF—obs ([3]; male rats, oral 5 mg/kg): 3.33 ng·h/mL
Cmax ([3]; male rats, oral 5 mg/kg): 4.69 ng/mL
Tmax ([3]; male rats, oral 5 mg/kg): 30 min

Compound: N#CC[C@H](C1CCCC1)n1cc(-c2ncnc3[nH]ccc23)cn1 [Ruxolitinib]
AUCINF—obs ([4]; IV 5 mg/kg): 13776 ng·h/mL
Cl_obs ([4]; IV 5 mg/kg): 480 mL/h/kg
Vss_obs ([4]; IV 5 mg/kg): 1100 mL/kg
t1/2 ([4]; IV 5 mg/kg): 2.5 h
AUCINF—obs ([4]; PO 10 mg/kg): 15716 ng·h/mL
Cmax ([4]; PO 10 mg/kg): 3519 ng/mL
F ([4]; PO 10 mg/kg): 57%
Tmax ([4]; PO 10 mg/kg): 2.0 h
t1/2 ([4]; PO 10 mg/kg): 2.2 h
AUCINFobs [5]: 1345 ng·h/mL
Cmax [5]: 1143 ng/mL
Tmax [5]: 30 min
t1/2 [5]: 1.22 h
